ChEMBL document CHEMBL1152632, “Synthesis and evaluation of functionalized isoindigos as antiproliferative agents” (Bioorg Med Chem, 2009)
pIC50: −log10 of the molar value. Active and inactive are the calls of the source. No cut-off for these calls is given here.

What was measured:
[1] = target: Platelet-derived growth factor receptor beta (Homo sapiens) (UniProt P09619); assay: Inhibition of PDGFRB at 10 uM
[2] = target: Serine/threonine-protein kinase pim-2 (Homo sapiens) (UniProt Q9P1W9); assay: Inhibition of PIM2 at 10 uM
[3] = target: Mitogen-activated protein kinase 3 (Homo sapiens) (UniProt P27361); assay: Inhibition of ERK1 at 10 uM
[4] = target: Fibroblast growth factor receptor 3 (Homo sapiens) (UniProt P22607); assay: Inhibition of FGFR3 at 10 uM
[5] = target: Non-receptor tyrosine-protein kinase TYK2 (Homo sapiens) (UniProt P29597); assay: Inhibition of TYK2 at 10 uM
Non-receptor tyrosine-protein kinase TYK2 (Homo sapiens), sequence (P29597 whole entry): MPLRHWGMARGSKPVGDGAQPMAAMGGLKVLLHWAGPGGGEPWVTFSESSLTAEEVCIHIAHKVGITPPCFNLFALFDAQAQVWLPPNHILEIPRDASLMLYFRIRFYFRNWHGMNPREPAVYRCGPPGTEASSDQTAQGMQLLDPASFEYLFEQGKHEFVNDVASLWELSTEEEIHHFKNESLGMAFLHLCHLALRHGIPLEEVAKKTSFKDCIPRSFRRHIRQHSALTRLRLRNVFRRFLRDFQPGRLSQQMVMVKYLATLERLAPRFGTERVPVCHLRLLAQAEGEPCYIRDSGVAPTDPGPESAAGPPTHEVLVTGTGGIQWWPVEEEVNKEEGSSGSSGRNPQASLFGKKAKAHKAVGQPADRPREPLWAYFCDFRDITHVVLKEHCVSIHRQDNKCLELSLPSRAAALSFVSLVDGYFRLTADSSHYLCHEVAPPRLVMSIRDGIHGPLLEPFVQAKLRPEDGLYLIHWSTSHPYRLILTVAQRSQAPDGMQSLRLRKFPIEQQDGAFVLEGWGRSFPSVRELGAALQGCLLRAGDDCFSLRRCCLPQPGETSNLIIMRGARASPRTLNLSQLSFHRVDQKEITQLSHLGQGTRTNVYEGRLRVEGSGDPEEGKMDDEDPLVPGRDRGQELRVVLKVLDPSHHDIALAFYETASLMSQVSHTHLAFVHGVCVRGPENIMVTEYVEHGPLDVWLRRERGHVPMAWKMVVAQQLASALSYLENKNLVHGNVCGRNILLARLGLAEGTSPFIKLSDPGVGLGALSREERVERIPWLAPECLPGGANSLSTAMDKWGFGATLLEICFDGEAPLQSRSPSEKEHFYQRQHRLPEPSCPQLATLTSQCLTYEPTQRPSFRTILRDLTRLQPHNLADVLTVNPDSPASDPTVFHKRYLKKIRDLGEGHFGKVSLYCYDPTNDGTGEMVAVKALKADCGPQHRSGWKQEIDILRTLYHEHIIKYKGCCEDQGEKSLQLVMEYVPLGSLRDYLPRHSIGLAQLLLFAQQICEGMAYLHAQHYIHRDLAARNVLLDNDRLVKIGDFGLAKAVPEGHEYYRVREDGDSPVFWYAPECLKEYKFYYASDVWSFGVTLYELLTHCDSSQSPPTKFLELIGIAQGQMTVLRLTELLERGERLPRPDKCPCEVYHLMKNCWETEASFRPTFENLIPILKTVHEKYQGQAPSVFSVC

[6] = target: Serine/threonine-protein kinase pim-3 (Homo sapiens) (UniProt Q86V86); assay: Inhibition of PIM3 at 10 uM
[7] = target: Cyclin-dependent kinase 7 (Homo sapiens) (UniProt P50613); assay: Inhibition of CDK7 at 10 uM
[8] = target: Tyrosine-protein kinase JAK2 (Homo sapiens) (UniProt O60674); assay: Inhibition of JAK2 at 10 uM
[9] = target: Serine/threonine-protein kinase Chk1 (Homo sapiens) (UniProt O14757); assay: Inhibition of CHEK1 at 10 uM
[10] = target: Insulin receptor (Homo sapiens) (UniProt P06213); assay: Inhibition of INSR at 10 uM
[11] = target: Receptor tyrosine-protein kinase erbB-4 (Homo sapiens) (UniProt Q15303); assay: Inhibition of ERBB4 at 10 uM
[12] = target: Hepatocyte growth factor receptor (Homo sapiens) (UniProt P08581); assay: Inhibition of MET at 10 uM
[13] = target: Cyclin-dependent kinase 9 (Homo sapiens) (UniProt P50750); assay: Inhibition of CDK9 at 10 uM
Cyclin-dependent kinase 9 (Homo sapiens), sequence (P50750 whole entry): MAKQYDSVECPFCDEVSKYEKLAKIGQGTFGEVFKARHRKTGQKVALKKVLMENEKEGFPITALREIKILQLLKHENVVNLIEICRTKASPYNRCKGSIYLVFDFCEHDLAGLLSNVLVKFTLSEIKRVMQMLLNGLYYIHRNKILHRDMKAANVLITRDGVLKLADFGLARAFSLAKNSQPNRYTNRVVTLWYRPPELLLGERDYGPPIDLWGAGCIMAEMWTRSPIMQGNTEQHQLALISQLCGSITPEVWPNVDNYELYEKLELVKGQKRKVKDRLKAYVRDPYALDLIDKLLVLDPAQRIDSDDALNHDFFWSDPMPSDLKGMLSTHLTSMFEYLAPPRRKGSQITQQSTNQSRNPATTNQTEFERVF

[14] = target: Fibroblast growth factor receptor 2 (Homo sapiens) (UniProt P21802); assay: Inhibition of FGFR2 at 10 uM
[15] = target: ALK tyrosine kinase receptor (Homo sapiens) (UniProt Q9UM73); assay: Inhibition of ALK at 10 uM
ALK tyrosine kinase receptor (Homo sapiens), sequence (Q9UM73 19-1620 limits assumed): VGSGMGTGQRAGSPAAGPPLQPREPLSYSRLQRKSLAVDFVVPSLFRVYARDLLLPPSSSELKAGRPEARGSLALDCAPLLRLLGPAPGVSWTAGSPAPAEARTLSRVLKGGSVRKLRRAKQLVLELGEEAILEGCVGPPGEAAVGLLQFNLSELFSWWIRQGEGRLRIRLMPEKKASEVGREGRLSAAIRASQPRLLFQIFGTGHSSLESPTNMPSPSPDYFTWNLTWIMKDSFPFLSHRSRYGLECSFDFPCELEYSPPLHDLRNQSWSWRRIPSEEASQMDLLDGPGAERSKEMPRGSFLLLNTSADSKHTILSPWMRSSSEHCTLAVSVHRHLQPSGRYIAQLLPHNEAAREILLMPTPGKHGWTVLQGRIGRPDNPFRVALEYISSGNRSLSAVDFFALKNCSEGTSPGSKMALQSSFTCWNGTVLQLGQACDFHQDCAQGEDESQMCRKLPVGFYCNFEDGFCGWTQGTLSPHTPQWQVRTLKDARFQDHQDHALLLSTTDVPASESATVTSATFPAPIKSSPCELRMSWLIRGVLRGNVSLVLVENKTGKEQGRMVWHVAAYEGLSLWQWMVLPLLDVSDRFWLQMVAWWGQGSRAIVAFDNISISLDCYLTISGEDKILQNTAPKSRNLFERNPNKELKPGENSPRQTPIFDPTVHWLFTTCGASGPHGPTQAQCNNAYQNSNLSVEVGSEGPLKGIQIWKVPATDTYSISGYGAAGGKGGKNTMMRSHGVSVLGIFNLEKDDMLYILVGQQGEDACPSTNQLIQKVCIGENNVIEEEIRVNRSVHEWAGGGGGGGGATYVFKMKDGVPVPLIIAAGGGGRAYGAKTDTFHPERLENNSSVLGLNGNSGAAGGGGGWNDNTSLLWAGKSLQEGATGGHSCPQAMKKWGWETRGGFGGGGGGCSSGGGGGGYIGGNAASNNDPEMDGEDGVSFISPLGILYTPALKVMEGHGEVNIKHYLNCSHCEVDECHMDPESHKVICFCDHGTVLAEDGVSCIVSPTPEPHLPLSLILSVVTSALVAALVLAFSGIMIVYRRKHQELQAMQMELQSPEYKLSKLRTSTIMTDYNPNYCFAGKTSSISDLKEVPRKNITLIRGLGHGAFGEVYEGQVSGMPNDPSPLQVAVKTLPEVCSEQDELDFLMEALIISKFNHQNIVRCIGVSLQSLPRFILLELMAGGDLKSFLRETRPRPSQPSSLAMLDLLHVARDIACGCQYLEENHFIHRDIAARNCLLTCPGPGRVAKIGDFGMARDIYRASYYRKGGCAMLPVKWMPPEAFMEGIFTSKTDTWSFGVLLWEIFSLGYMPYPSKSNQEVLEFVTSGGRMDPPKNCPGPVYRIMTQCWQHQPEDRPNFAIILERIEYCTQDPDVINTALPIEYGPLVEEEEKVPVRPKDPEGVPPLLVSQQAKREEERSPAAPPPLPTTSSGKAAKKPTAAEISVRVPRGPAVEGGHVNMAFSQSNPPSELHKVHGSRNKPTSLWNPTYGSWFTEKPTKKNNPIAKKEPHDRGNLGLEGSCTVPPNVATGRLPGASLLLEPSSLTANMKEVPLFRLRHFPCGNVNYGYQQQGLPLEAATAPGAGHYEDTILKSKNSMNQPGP

[16] = target: Serine/threonine-protein kinase PLK4 (Homo sapiens) (UniProt O00444); assay: Inhibition of PLK4 at 10 uM
[17] = target: Cyclin-dependent kinase 2/cyclin A (Homo sapiens) (UniProt P24941+P20248+P78396); assay: Inhibition of CDK2/cyclin A at 10 uM by IMAP assay; format: protein-complex assay
[18] = target: Proto-oncogene tyrosine-protein kinase Src (Homo sapiens) (UniProt P12931); assay: Inhibition of SRC at 10 uM
[19] = target: Platelet-derived growth factor receptor alpha (Homo sapiens) (UniProt P16234); assay: Inhibition of PDGFRA at 10 uM
Platelet-derived growth factor receptor alpha (Homo sapiens), sequence (P16234 whole entry): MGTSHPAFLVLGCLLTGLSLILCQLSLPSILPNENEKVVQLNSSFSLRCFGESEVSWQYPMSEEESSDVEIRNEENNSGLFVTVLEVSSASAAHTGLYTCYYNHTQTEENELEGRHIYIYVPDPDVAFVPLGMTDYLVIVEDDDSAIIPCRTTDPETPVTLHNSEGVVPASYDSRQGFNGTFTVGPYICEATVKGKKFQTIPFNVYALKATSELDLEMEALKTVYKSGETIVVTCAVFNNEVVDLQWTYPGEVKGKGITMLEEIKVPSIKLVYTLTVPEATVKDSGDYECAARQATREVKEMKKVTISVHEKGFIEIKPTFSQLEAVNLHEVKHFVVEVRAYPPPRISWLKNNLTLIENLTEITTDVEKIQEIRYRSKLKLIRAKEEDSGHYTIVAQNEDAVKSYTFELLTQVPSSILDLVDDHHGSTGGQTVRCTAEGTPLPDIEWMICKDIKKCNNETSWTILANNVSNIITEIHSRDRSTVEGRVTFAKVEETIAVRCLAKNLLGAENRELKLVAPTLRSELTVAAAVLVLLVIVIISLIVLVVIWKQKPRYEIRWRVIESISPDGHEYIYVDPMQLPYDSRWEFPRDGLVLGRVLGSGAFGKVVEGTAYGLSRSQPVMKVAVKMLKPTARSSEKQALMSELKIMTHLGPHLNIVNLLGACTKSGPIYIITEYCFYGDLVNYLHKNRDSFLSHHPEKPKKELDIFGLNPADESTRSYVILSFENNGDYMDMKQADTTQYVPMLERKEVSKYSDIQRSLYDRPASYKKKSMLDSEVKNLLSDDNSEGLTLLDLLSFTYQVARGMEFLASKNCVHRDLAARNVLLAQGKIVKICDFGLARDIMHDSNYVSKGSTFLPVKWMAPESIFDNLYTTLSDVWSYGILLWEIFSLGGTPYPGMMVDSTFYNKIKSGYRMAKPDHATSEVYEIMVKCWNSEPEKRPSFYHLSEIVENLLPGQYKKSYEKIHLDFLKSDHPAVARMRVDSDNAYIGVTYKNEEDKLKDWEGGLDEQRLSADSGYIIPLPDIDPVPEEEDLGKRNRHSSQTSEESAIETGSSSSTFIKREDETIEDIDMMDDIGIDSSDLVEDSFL

[20] = target: Epidermal growth factor receptor (Homo sapiens) (UniProt P00533); assay: Inhibition of EGFR at 10 uM
[21] = target: Atypical kinase COQ8A, mitochondrial (Homo sapiens) (UniProt Q8NI60); assay: Inhibition of ADCK3 at 10 uM
[22] = target: Tyrosine-protein kinase ABL1 (Homo sapiens) (UniProt P00519); assay: Inhibition of ABL1 at 10 uM
[23] = target: Macrophage colony-stimulating factor 1 receptor (Homo sapiens) (UniProt P07333); assay: Inhibition of CSF1R at 10 uM
[24] = target: Casein kinase I isoform gamma-2 (Homo sapiens) (UniProt P78368); assay: Inhibition of CSNK1G2 at 10 uM
[25] = target: Receptor-type tyrosine-protein kinase FLT3 (Homo sapiens) (UniProt P36888); assay: Inhibition of FLT3 at 10 uM
[26] = target: Phosphatidylinositol 4,5-bisphosphate 3-kinase catalytic subunit gamma isoform (Homo sapiens) (UniProt P48736); assay: Inhibition of PIK3CG at 10 uM
[27] = target: Mitogen-activated protein kinase 11 (Homo sapiens) (UniProt Q15759); assay: Inhibition of p38beta at 10 uM
Mitogen-activated protein kinase 11 (Homo sapiens), sequence (Q15759 whole entry): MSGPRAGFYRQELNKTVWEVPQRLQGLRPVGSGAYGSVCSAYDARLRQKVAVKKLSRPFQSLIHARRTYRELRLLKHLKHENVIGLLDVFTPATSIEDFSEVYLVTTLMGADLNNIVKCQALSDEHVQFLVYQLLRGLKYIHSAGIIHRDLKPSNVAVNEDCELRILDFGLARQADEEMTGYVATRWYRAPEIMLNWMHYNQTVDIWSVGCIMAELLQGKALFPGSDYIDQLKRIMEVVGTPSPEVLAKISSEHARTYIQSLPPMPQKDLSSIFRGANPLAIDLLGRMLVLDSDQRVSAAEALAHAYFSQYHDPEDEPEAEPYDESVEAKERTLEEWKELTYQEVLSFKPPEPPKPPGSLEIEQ

[28] = target: Tyrosine-protein kinase BTK (Homo sapiens) (UniProt Q06187); assay: Inhibition of BTK at 10 uM
[29] = Antiproliferative activity against human IMR90 cells after 72 hrs by MTT assay; format: cell-based; settings: IMR-90, 72 h
[30] = target: Dual specificity mitogen-activated protein kinase kinase 2 (Homo sapiens) (UniProt P36507); assay: Inhibition of MEK2 at 10 uM
[31] = target: Dual specificity mitogen-activated protein kinase kinase 1 (Homo sapiens) (UniProt Q02750); assay: Inhibition of MEK1 at 10 uM
Dual specificity mitogen-activated protein kinase kinase 1 (Homo sapiens), sequence (Q02750 whole entry): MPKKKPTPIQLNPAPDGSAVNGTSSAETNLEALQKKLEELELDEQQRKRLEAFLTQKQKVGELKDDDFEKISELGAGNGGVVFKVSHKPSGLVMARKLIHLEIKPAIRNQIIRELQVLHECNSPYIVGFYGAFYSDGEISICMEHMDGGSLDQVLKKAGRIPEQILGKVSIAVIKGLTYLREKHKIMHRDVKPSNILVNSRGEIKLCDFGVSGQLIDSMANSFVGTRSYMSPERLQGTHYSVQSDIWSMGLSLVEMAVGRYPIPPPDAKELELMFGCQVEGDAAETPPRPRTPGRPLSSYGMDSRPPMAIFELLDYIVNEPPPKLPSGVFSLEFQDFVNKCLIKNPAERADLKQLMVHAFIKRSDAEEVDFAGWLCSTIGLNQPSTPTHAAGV

[32] = target: SRSF protein kinase 3 (Homo sapiens) (UniProt Q9UPE1); assay: Inhibition of SRPK3 at 10 uM
[33] = target: cAMP-dependent protein kinase catalytic subunit alpha (Homo sapiens) (UniProt P17612); assay: Inhibition of PKACalpha at 10 uM
[34] = target: Dual specificity tyrosine-phosphorylation-regulated kinase 1B (Homo sapiens) (UniProt Q9Y463); assay: Inhibition of DYRK1B at 10 uM
[35] = target: Cyclin-dependent kinase 2 (Homo sapiens) (UniProt P24941); assay: Inhibition of CDK2 at 10 uM
[36] = target: Serine/threonine-protein kinase pim-1 (Homo sapiens) (UniProt P11309); assay: Inhibition of PIM1 at 10 uM
[37] = target: Glycogen synthase kinase-3 beta (Homo sapiens) (UniProt P49841); assay: Inhibition of GSK3-beta at 10 uM
[38] = target: RAF proto-oncogene serine/threonine-protein kinase (Homo sapiens) (UniProt P04049); assay: Inhibition of RAF1 at 10 uM
[39] = target: Receptor tyrosine-protein kinase erbB-2 (Homo sapiens) (UniProt P04626); assay: Inhibition of ERBB2 at 10 uM
[40] = tested on: HCT-116; assay: cells; settings: Homo sapiens, HCT-116, 72 h
Description: Antiproliferative activity against human HCT116 cells after 72 hrs by MTT assay

[41] = target: Serine/threonine-protein kinase B-raf (Homo sapiens) (UniProt P15056); assay: Inhibition of BRAF at 10 uM
[42] = target: Cyclin-dependent kinase 3 (Homo sapiens) (UniProt Q00526); assay: Inhibition of CDK3 at 10 uM
[43] = target: Insulin-like growth factor 1 receptor (Homo sapiens) (UniProt P08069); assay: Inhibition of IGF1R at 10 uM
[44] = tested on: Huh-7; assay: Antiproliferative activity against human HuH7 cells after 72 hrs by MTT assay; format: functional, cell-based; settings: Huh-7, 72 h
[45] = target: Angiopoietin-1 receptor (Homo sapiens) (UniProt Q02763); assay: Inhibition of TIE2 at 10 uM
[46] = target: Mast/stem cell growth factor receptor Kit (Homo sapiens) (UniProt P10721); assay: Inhibition of KIT at 10 uM
[47] = tested on: K562; assay: cells; settings: Homo sapiens, K562, 72 h
Description: Antiproliferative activity against human K562 cells after 72 hrs by MTT assay

[48] = tested on: HL-60; assay: Antiproliferative activity against human HL60 cells after 5 days by MTT assay; format: functional, cell-based; settings: HL-60, 120 h
[49] = target: TGF-beta receptor type-1 (Homo sapiens) (UniProt P36897); assay: Inhibition of TGFBR1 at 10 uM
[50] = target: Mitogen-activated protein kinase 14 (Homo sapiens) (UniProt Q16539); assay: Inhibition of p38alpha at 10 uM

SMILES: CN1C(=O)/C(=C2/C(=O)Nc3ccccc32)c2ccccc21 [MEISOINDIGO]
- inhibition [1]: 15%
- inhibition [2]: 2%
- inhibition [3]: 0%
- inhibition [4]: 4%
- inhibition [5]: 8%
- inhibition [6]: 7%
- inhibition [7]: 56%
- inhibition [8]: 4%
- inhibition [9]: 0%
- inhibition [10]: 10%
- inhibition [11]: 0%
- inhibition [12]: 0%
- inhibition [13]: 0%
- inhibition [14]: 0%
- inhibition [15]: 0%
- inhibition [16]: 12%
- inhibition [17]: inactive
- inhibition [18]: 15%
- inhibition [19]: 0%
- inhibition [20]: 16%
- inhibition [21]: 0%
- inhibition [22]: 11%
- inhibition [23]: 0%
- inhibition [24]: 0%
- inhibition [25]: 0%
- inhibition [26]: 0%
- inhibition [27]: 0%
- inhibition [28]: 0%
- pIC50 [29]: 5.11
- inhibition [30]: 0%
- inhibition [31]: 16%
- inhibition [32]: 0%
- inhibition [33]: 0%
- inhibition [34]: 0%
- inhibition [35]: 4%
- inhibition [36]: 3%
- inhibition [37]: 16%
- inhibition [38]: 0%
- inhibition [39]: 0%
- pIC50 [40]: 4.81
- inhibition [41]: 0%
- inhibition [42]: 0%
- inhibition [43]: 13%
- pIC50 [44]: 4.74
- inhibition [45]: 6%
- inhibition [46]: 8%
- pIC50 [47]: 5.17
- pIC50 [48]: 4.91
- inhibition [49]: 0%
- inhibition [50]: 0%

SMILES: O=C1Nc2ccccc2/C1=C1\C(=O)N(CCCc2ccccc2)c2ccccc21
- inhibition [1]: 49%
- inhibition [2]: 23%
- inhibition [3]: 18%
- inhibition [4]: 32%
- inhibition [5]: 0%
- inhibition [6]: 0%
- inhibition [7]: 28%
- inhibition [8]: 25%
- inhibition [9]: 35%
- inhibition [10]: 0%
- inhibition [11]: 16%
- inhibition [12]: 0%
- inhibition [13]: 0%
- inhibition [14]: 42%
- inhibition [15]: 0%
- inhibition [16]: 39%
- inhibition [17]: inactive
- inhibition [18]: 15%
- inhibition [19]: 0%
- inhibition [20]: 0%
- inhibition [21]: 45%
- inhibition [22]: 46%
- inhibition [23]: 11%
- inhibition [24]: 0%
- inhibition [25]: 0%
- inhibition [26]: 19%
- inhibition [27]: 32%
- inhibition [28]: 13%
- inhibition [30]: 9%
- inhibition [31]: 0%
- inhibition [32]: 7%
- inhibition [33]: 12%
- inhibition [34]: 0%
- inhibition [35]: 0%
- inhibition [36]: 0%
- inhibition [37]: 5%
- inhibition [38]: 9%
- inhibition [39]: 3%
- inhibition [41]: 0%
- inhibition [42]: 0%
- inhibition [43]: 20%
- inhibition [45]: 0%
- inhibition [46]: 49%
- inhibition [49]: 0%
- inhibition [50]: 4%
